Laboratory results from patent US20120022056A1, “FUSED TRICYCLIC DERIVATIVES FOR THE TREATMENT OF PSYCHOTIC DISORDERS” (priority 2005, published 2012).
Where a name gives a salt, the structure may show the parent alone.

These compounds were tested against T1, 5-HT1A receptor (Homo sapiens, UniProt P08908) (assay: GTPγS binding functional potency assay (primary screen), 5-HT1A). Conditions: assay a), membranes of HEK293 cells transfected with human 5-HT1A, read-out: fpKi at the 5-HT1A receptor.
T1 construct: expressed in transfected cells; host or cells: HEK293 (membranes)
T1 sequence (P08908 1-422): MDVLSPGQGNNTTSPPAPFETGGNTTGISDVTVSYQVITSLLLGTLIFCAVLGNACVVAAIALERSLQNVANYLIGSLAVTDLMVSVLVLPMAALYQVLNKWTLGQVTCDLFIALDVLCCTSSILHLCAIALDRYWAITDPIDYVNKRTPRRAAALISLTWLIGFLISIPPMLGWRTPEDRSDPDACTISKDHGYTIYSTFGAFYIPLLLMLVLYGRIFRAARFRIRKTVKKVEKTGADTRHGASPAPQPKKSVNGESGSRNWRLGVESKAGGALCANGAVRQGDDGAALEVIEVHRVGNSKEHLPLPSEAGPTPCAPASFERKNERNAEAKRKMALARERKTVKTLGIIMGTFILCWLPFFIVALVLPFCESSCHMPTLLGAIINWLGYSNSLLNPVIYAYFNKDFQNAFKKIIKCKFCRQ
Format: biochemical
Experimental: a) Functional Potency—Primary Screen
The functional potency may be determined by the following GTPγS binding protocol. Cells used in the study are CHO Cells and Human Embryo Kidney (HEK293). Cells were transfected with DNA coding for human receptors as follows: HEK293—5-HT1A; CHO—5-HT1B; and CH—5-HT1D. Test compounds were initially dissolved in 100% dimethyl sulfoxide to a concentration of 10 mM. Serial dilution of the test compounds in 100% dimethyl sulphoxide was carried out using a Biomek FX in 384 well assay plates, so that the final top concentration of test compound is 3 μM in the assay. Add the test compound at 1.0% total assay volume (TAV) to a solid, white, 384 well assay plate (Costar). Add 50% TAV of precoupled (for 90 mins @ RT) membranes (5 ug/well), Wheatgerm Agglutinin Polystyrene Scintillation Proximity Assay beads (RPNQ0260 Amersham International) (0.25 mg/well) in 20 mM HEPES pH 7.4, 100 mM NaCl, 3 mM MgCl2 and 10 μM GDP. The third addition was a 20% TAV addition of either buffer, agonist format, or EC80 final assay concentration (FAC) of agonist, 5HT antagonist format, prepared in assay buffer. The assay was started by the addition of 29% TAV of GTPγS 0.38 nM FAC. After all additions assay plates were incubated at RT for 2-3 hours. Assay plates were counted on a Viewlux, 613/55 filter for 5 mins. Assay plates were read between 2-6 hours after the final addition.

Ki, < 10 nM:
CNC(=O)c1ncn2c1CCc1c(CCN3CCC(c4cccc5nc(C)ccc45)CC3)cccc1-2 [Example 83, N-methyl-6-{2-[4-(2-methyl-5-quinolinyl)-1-piperidinyl]ethyl}-4,5-dihydroimidazo[1,5-a]quinoline-3-carboxamide dihydrochloride]
CNC(=O)c1ncn2c1ccc1c(CCN3CCC(c4cccc5nc(C)ccc45)CC3)cccc12 [Example 89, N-methyl-6-{2-[4-(2-methyl-5-quinolinyl)-1-piperidinyl]ethyl}imidazo[1,5-a]quinoline-3-carboxamide dihydrochloride]
Cc1ccc2c(C3CCN(CCc4cccc5c4ccc4c(C(N)=O)ncn45)CC3)cccc2n1 [Example 91, 6-{2-[4-(2-methyl-5-quinolinyl)-1-piperidinyl]ethyl}imidazo[1,5-a]quinoline-3-carboxamide dihydrochloride]
Cc1ccc2c(N3CCN(CCc4cccc5c4ccc4nnnn45)[C@H](C)C3)cccc2n1 [Example 94, 6-{2-[(2R)-2-methyl-4-(2-methyl-5-quinolinyl)-1-piperazinyl]ethyl}tetrazolo[1,5-a]quinoline dihydrochloride]
CCOC(=O)c1nnn2c1ccc1c(CCN3CCN(c4cccc5nc(C)ccc45)CC3)cccc12 [Example 97, ethyl 6-{2-[4-(2-methyl-5-quinolinyl)-1-piperazinyl]ethyl}[1,2,3]triazolo[1,5-a]quinoline-3-carboxylate dihydrochloride]
Cc1ccc2c(N3CCN(CCc4cccc5c4ccc4c(-c6nc(C)no6)ncn45)[C@H](C)C3)cccc2n1 [Example 105, 6-{2-[(2R)-2-methyl-4-(2-methyl-5-quinolinyl)-1-piperazinyl]ethyl}-3-(3-methyl-1,2,4-oxadiazol-5-yl)imidazo[1,5-a]quinoline dihydrochloride]
Cc1ccc2c(C3CCN(CCc4cccc5c4CCc4c(C(N)=O)ncn4-5)CC3)cccc2n1 [Example 122, 6-{2-[4-(2-methyl-5-quinolinyl)-1-piperidinyl]ethyl}-4,5-dihydroimidazo[1,5-a]quinoline-3-carboxamide dihydrochloride]
CNC(=O)c1ncn2c1COc1c-2ccc(C)c1CCN1CCC(c2cccc3nc(C)ccc23)CC1 [Example 124, N,7-dimethyl-6-{2-[4-(2-methyl-5-quinolinyl)-1-piperidinyl]ethyl}-4H-imidazo[5,1-c][1,4]benzoxazine-3-carboxamide dihydrochloride]
Cc1ccc2c(C3CCN(CCc4c(C)ccc5c4OCc4c(C(N)=O)ncn4-5)CC3)cccc2n1 [Example 125, 7-methyl-6-{2-[4-(2-methyl-5-quinolinyl)-1-piperidinyl]ethyl}-4H-imidazo[5,1-c][1,4]benzoxazine-3-carboxamide dihydrochloride]
